Results on 8 compounds are retold here after ChEMBL document CHEMBL1201862, “PubChem BioAssay data set” (2004).

Experiment [1] concerns the target Procathepsin L (Homo sapiens, UniProt P07711). Kind of experiment: cathepsin L inhibitors, dose response, counter-screen for M1/M17 aminopeptidase inhibitor project, biochemical, QFRET, 1536-well (AID 2214).
For experiment [2], the target named is T1, Aspartyl aminopeptidase (Plasmodium falciparum 3D7, UniProt Q8I2J3).
T1 sequence (Q8I2J3 whole entry): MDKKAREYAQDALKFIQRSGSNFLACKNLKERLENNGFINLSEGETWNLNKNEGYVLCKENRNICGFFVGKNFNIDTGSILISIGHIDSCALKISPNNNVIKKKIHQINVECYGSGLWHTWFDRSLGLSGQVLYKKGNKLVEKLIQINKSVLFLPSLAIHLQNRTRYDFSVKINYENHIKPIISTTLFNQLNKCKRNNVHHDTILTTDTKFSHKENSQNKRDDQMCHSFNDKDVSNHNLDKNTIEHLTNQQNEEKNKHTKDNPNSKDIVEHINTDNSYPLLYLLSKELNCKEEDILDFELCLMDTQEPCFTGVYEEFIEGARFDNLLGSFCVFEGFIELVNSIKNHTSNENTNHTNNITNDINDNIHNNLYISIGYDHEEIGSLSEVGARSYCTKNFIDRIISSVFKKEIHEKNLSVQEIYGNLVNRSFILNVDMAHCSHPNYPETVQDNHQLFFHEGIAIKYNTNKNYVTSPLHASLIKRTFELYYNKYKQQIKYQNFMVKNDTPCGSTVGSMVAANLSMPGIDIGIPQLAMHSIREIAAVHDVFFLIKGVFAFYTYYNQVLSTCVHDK
In words: Counterscreen for inhibitors of M1 and M17 aminopeptidases: QFRET-based biochemical high throughput dose response assay for inhibitors of the Plasmodium falciparum M18 Aspartyl Aminopeptidase (PFM18AAP). [Related PubChem assays: 1619 (Screening assay (M17LAP inhibitors).), 1445 (Screening assay (M1AAP inhibitors).)].

Experiment [3] has as its target T2, Leucine aminopeptidase (Plasmodium falciparum 3D7, UniProt Q8IL11).
T2 sequence (Q8IL11 whole entry): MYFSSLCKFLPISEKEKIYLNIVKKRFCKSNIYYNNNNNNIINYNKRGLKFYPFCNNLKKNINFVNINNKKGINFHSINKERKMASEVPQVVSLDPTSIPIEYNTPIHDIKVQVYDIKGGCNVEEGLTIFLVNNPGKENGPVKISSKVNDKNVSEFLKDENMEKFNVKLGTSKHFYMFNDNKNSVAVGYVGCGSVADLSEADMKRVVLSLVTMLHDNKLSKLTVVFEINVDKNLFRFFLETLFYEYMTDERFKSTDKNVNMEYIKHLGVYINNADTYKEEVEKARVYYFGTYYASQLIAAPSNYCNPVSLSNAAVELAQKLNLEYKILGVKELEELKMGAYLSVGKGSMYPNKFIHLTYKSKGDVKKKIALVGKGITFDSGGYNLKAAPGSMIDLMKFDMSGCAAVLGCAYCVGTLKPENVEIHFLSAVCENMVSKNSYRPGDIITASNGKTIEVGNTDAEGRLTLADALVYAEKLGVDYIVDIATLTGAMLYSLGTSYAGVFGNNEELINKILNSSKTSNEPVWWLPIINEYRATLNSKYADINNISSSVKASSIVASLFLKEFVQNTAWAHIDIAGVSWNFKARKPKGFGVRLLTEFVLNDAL
In words: P. falciparum M17LAP inhibitors, primary screen, biochemical, fluorogenic H-Leu-NHMec substrate, 1536-well (AID 1619). Type of experiment: functional.

In experiment [4] the target is Heat shock protein HSP 90-alpha (Homo sapiens, UniProt P07900). The experiment is classed as functional, organism-based.
The target of experiment [5] is Peroxisome proliferator-activated receptor gamma/Nuclear receptor coactivator 2 (Homo sapiens, UniProt P37231). Type of experiment: functional.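 Note: agonist potency for raising coactivator recruitment to the receptor.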
In experiment [6] the target is Peroxisome proliferator-activated receptor gamma/Nuclear receptor coactivator 1 (Homo sapiens, UniProt P37231). The experiment is classed as functional.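 Note: agonist potency as compounds enhance coactivator SRC-1 recruitment to PPARgamma.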
The target in experiment [7] is Peroxisome proliferator-activated receptor gamma/Nuclear receptor coactivator 3 (Homo sapiens, UniProt P37231). Type of experiment: functional.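 Note: agonist potency for raising coactivator recruitment to the receptor.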
In experiment [8] the target is Glyceraldehyde-3-phosphate dehydrogenase (Homo sapiens, UniProt P04406).
Experiment [9] addresses T3, Bcl-2-related protein A1 (Mus musculus, UniProt Q07440).
T3 sequence (Q07440 whole entry): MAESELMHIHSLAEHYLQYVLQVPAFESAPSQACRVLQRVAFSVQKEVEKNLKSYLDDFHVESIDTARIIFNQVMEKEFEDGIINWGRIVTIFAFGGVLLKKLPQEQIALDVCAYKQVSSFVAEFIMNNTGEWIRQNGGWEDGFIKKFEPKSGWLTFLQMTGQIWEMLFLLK
In words: Bfl-1 inhibitors blocking BH3 peptide binding, confirmation, biochemical, TR-FRET, mouse Bfl-1 (AID 621).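 Note: TR-FRET binding of GST-Bfl-1 to FITC-labelled Bid peptide via terbium antibody.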

In experiment [10] the target is T3, Bcl-2-related protein A1. Kind of experiment: Bfl-1 binding inhibitors, SAR follow-up, biochemical, fluorescence polarization (AID 1070).
Experiment [11] addresses FAD-linked sulfhydryl oxidase ALR (Homo sapiens, UniProt P55789). In words: inhibitors of human ALR sulfhydryl oxidase, dose response, biochemical, H2O2 detection, luminescence, cherry-pick (AID 493248).
For experiment [12], the system named is BJ. In words: cytotoxicity toward BJ-TERT fibroblasts, dose response, cell-based, RAS-independent, luminescence (AID 1933). Type of experiment: functional. The settings on record: Homo sapiens.
Experiment [13] in a line: HEK293 cell cytotoxicity, dose response, cytotoxicity control, plate reader, cherry-picked samples (AID 743446). The experiment is classed as functional, cell-based.
For experiment [14], the system named is BJ. Kind of experiment: cytotoxicity toward BJ-TERT-LT-ST fibroblasts, dose response, cell-based, RAS-independent, luminescence (AID 1935).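 Note: BJ fibroblasts immortalized with TERT plus LT and ST oncogenes.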 Type of experiment: functional. Conditions: Homo sapiens.
Experiment [15] can be described thus: inhibitors of firefly luciferase expression or activity, dose response, H4 neuroglioma cells, luminescence (AID 1990). Type of experiment: functional, cell-based.
The nature of experiment [16]: cytotoxicity toward DRD oncogenic fibroblasts, dose response, cell-based, non-viral oncogenic, luminescence (AID 1934). Type of experiment: functional. The settings on record: Homo sapiens.
A short description of experiment [17]: Luminescence Cell-Based Dose Confirmation HTS to Identify Inhibitors of Platelet Dense Granule Release. [Related pubchem assays: 1663 (Primary HTS), 1678 (Summary of Project)]. Type of experiment: functional.
The nature of experiment [18]: Luminescence-based counterscreen assay for KLF5 inhibitors: dose response cell-based high throughput screening assay to identify cytotoxic compounds using the IEC-6 intestinal epithelial cell line. [Related pubchem assays: 1700 (Primary screen.), 1834 (Confirmation screen.), 1858 (Summary AID.), 1905 (Counterscreen.)]. Type of experiment: functional.
Experiment [19] relates to BJ. Kind of experiment: cells. Conditions: Homo sapiens. The experiment is classed as functional, cell-based.
Experiment [20] can be described thus: A549 cell cytotoxicity, dose response, cytotoxicity control, plate reader, cherry-pick, antagonist series (AID 743412). The experiment is classed as functional, cell-based.
A short description of experiment [21]: inhibitors of SNCA 5'UTR-driven reporter translation, confirmation, H4 neuroglioma cells, luminescence (AID 1988). Type of experiment: functional, cell-based.
The nature of experiment [22]: LGR2 antagonists, dose response, cell-based, HEK293, CRE-luciferase reporter, cherry pick, set 2 (AID 743343).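 Note: transfected cells were stimulated with diluted bursicon conditioned medium after compound addition.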 The experiment is classed as functional.
Experiment [23] concerns the target Luciferin 4-monooxygenase (Photinus pyralis, UniProt P08659). In words: firefly luciferase enzyme inhibitors, dose response, biochemical, luminescence (AID 1891).
Experiment [24] in a line: MC4R antagonists, dose response, counter-screen for LGR2 antagonist project, cell-based, plate reader, cherry pick (AID 743444).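 Note: transfected HEK 293 cells stimulated with alpha-MSH peptide; potency of inhibitors of the alpha-MSH evoked signal.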 Type of experiment: functional.
Experiment [25] is described as follows: HepG2 cell cytotoxicity, dose response, cytotoxicity control, plate reader, cherry-pick, antagonist series (AID 743416). The experiment is classed as functional, cell-based.
Experiment [26] deals with Induced myeloid leukemia cell differentiation protein Mcl-1 (Homo sapiens, UniProt Q07820). In words: MCL1-BIM BH3 interaction inhibitors, dose response, biochemical, fluorescence polarization, BIM-BH3 peptide, 1536-well (AID 2217).
Experiment [27] has as its target Bcl-2-like protein 1 (Homo sapiens, UniProt Q07817). In words: BCL-XL inhibitors, dose response, selectivity assay for MCL1 inhibitor project, biochemical, fluorescence polarization, 1536-well (AID 2218).

Active and inactive are the calls of the source.

Sequence of Glyceraldehyde-3-phosphate dehydrogenase (P04406 whole entry): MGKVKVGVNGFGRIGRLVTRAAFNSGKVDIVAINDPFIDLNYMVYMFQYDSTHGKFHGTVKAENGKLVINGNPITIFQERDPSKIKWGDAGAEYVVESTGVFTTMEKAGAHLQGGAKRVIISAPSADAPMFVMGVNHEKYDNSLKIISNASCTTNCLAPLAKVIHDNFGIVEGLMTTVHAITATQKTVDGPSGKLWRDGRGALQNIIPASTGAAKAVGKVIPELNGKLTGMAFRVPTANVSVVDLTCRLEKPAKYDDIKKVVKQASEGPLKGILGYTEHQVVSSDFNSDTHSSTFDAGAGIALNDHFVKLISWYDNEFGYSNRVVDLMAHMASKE
Sequence of Peroxisome proliferator-activated receptor gamma/Nuclear receptor coactivator 3 (P37231 whole entry): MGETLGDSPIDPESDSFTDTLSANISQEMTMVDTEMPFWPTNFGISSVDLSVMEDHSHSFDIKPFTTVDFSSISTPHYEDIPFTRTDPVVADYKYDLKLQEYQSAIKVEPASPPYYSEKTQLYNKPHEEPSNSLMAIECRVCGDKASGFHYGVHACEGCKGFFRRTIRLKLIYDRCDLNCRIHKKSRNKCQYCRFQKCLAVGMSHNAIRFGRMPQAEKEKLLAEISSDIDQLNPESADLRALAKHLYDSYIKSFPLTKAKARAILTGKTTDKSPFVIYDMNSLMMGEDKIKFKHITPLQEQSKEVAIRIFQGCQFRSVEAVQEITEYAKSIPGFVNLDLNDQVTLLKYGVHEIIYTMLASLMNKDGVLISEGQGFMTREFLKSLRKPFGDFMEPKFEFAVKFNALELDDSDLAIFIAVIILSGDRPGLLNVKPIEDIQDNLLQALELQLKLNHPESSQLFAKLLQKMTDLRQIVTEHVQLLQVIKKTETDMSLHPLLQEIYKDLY
Sequence of Peroxisome proliferator-activated receptor gamma/Nuclear receptor coactivator 3 (Q9Y6Q9 whole entry, further chain): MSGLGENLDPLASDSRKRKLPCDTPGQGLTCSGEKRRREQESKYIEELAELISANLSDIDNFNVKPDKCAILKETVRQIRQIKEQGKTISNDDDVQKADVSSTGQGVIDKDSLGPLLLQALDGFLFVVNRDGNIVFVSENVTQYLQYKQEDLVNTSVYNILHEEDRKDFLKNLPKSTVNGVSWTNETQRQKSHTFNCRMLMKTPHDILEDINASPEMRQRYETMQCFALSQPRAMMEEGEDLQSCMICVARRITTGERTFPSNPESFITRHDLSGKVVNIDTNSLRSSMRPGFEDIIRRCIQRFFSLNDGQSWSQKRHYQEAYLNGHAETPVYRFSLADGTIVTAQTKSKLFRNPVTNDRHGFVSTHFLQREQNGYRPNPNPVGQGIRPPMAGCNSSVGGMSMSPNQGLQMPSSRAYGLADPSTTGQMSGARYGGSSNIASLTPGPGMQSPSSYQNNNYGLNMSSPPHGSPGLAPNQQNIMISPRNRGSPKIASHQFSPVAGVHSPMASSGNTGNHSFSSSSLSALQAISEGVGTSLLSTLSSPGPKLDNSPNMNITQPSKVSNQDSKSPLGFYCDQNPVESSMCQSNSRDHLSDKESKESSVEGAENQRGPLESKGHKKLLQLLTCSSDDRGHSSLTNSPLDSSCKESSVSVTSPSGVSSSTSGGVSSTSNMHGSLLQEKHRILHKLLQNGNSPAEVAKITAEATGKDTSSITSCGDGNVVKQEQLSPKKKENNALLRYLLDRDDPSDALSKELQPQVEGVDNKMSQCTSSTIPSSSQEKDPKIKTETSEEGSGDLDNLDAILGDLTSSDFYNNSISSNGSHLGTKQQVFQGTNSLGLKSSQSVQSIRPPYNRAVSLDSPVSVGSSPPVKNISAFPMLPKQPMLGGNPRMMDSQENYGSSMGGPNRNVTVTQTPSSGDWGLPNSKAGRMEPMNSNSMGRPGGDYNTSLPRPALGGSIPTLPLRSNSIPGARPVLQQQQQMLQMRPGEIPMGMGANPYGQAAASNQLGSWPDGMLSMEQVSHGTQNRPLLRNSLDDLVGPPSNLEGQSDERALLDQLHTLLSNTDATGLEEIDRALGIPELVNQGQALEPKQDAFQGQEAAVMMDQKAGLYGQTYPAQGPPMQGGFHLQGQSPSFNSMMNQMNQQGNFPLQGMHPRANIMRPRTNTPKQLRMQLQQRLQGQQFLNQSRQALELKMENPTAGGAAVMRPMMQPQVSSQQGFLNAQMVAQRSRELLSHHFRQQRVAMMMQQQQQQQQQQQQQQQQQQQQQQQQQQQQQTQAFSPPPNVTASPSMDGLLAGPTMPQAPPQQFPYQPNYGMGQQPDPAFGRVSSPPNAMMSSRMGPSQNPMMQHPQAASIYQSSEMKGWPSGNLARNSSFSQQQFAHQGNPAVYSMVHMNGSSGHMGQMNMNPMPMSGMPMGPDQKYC
Sequence of Peroxisome proliferator-activated receptor gamma/Nuclear receptor coactivator 2 (P37231 whole entry): as the sequence (P37231 whole entry) above
Sequence of Peroxisome proliferator-activated receptor gamma/Nuclear receptor coactivator 2 (Q15596 whole entry, further chain): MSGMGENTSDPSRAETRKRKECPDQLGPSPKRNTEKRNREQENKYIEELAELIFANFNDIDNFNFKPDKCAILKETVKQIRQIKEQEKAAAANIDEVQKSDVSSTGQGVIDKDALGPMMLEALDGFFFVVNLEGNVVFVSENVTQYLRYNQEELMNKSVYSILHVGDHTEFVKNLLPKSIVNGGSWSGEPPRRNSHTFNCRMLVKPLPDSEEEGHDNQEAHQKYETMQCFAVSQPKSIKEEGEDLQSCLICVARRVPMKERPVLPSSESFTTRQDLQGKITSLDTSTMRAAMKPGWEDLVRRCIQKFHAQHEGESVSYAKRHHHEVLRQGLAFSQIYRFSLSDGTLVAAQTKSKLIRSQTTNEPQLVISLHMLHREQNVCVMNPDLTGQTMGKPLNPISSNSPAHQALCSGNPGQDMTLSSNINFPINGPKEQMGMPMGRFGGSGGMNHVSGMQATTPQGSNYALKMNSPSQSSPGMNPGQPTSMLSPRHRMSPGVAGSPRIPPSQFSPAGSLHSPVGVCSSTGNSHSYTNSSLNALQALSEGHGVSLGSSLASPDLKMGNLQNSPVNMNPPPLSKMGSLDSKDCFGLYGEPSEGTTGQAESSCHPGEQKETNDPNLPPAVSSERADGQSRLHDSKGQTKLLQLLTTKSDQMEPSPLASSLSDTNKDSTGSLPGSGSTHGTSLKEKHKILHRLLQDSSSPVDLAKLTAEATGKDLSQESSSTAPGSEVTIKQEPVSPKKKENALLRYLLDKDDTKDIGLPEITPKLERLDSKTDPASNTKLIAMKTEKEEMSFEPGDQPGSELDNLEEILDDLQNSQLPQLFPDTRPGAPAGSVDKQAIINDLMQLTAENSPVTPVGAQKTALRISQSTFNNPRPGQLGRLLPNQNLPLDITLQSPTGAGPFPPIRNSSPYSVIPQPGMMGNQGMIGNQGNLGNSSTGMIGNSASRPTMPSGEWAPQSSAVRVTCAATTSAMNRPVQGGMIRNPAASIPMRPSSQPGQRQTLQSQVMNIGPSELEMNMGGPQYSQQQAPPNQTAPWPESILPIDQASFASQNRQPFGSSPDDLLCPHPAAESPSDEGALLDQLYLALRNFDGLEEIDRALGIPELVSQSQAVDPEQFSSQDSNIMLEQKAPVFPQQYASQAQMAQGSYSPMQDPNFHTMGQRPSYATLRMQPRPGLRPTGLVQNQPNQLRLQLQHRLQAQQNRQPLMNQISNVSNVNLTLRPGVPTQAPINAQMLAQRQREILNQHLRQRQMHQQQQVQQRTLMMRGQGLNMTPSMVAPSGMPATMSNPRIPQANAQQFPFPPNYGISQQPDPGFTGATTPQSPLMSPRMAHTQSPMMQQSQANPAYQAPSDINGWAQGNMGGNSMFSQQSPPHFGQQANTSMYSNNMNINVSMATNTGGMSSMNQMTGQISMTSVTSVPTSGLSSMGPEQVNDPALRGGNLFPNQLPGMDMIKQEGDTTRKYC
Sequence of Procathepsin L (P07711 whole entry): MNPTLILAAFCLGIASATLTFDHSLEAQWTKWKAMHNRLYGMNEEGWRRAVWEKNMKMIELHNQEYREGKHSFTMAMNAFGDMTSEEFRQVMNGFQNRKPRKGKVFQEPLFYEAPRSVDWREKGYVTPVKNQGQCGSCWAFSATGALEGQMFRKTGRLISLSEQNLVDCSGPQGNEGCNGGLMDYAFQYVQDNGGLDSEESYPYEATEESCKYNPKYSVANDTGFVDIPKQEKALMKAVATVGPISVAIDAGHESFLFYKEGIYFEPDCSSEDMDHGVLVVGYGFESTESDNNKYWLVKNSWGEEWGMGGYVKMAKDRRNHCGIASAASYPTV
Sequence of FAD-linked sulfhydryl oxidase ALR (P55789 whole entry): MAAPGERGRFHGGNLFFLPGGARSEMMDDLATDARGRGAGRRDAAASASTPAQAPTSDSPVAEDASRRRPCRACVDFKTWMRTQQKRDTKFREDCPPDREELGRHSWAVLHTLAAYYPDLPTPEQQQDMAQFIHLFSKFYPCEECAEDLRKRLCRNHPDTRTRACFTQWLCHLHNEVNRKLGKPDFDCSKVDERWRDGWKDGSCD
Sequence of Bcl-2-like protein 1 (Q07817 whole entry): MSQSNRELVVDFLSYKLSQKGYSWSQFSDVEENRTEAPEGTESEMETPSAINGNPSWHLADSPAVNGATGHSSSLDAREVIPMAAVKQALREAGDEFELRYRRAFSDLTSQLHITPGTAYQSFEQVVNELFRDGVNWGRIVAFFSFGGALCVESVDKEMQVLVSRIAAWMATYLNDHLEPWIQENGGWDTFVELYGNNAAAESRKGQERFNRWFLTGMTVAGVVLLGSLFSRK

Regarding `Cc1ccc(Nc2nnc(SC3CCOC3=O)s2)cc1` (stereo unspecified), the IC50 in experiment [1] is > 59.6 µM (not active); in experiment [2], > 73.5 µM (not active); in experiment [3] it was 1.94 µM (active).

On to `C/C(=N\Nc1nc2ccccc2s1)c1ccc(Br)s1`, for which the AC50 in [4] was 3.85 µM (active). Further, the EC50 in experiment [5], in experiment [6] and in experiment [7] was > 79.4 µM (not active) throughout.

On to `COc1ccccc1N1CCN(C2=C(Cl)C(=O)N(c3ccc(Cl)c(Cl)c3)C2=O)CC1`, for which the IC50 in experiment [8] is > 100 µM (not active); in experiment [9], 6.25 µM (active); in experiment [10], 9.57 µM (active).

In the case of `CCc1nc(SCc2ccc(F)cc2)[nH]c(=O)c1C#N`, the EC50 in experiment [5], in experiment [6] and in experiment [7] was > 79.4 µM (not active) throughout. In addition, the AC50 in experiment [11] is 0.622 µM (active).

Regarding `CN(C)c1ccc(Nc2nc(N)c3ccccc3n2)cc1`, the EC50 in experiment [12] is 10.6 µM (active); in [14] it was > 150 µM (inconclusive); in experiment [15] it was > 60 µM (inconclusive); in experiment [16], 11.8 µM (active); in experiment [17], 0.234 µM (active); in [19] it was 12.6 µM (active). For the same compound, the figures for the EC50 in experiment [21] and in [23] were 10.1 µM (inconclusive) and 1.37 µM (active), respectively. Besides, the AC50 was 24.5 µM (active) in [13]; 23.7 µM (active) in [20]; 1.57 µM (active) in experiment [22]; 1.89 µM (active) in experiment [24]; 22.6 µM (active) in experiment [25]. Besides, the half-inhibitory concentration (IC50) in experiment [18] is listed as 19.1 µM (not active).

As to `CCC1CCc2c(sc(NC(=O)C3CC=CCC3C(=O)O)c2C#N)C1` (stereo unspecified), the IC50 in experiment [1] was > 59.6 µM (not active); in experiment [2], > 73.5 µM (not active); in experiment [3] it was < 1 µM (active).

Turning to `O=C1C(Cl)=C(N2CCOCC2)C(=O)N1c1ccc(Cl)c(Cl)c1`, the concentration for half-maximal inhibition (IC50) in [8] is > 100 µM (not active); in experiment [9] it was 1.29 µM (active); in experiment [10], 1.51 µM (active).

For `Cc1cc[n+](-c2[n-]c(=O)sc2/C=N/NC(=O)CCn2c3ccccc3c3ccccc32)cc1`, the results for the IC50 in experiment [26] and in experiment [27] were 14.1 µM (not active) and 27.6 µM (not active), respectively.
